Laboratory results: ChEMBL document CHEMBL1145686, “Three new oleanane saponins from Zanha africana” (1997)

test system: Mus musculus; test: Antiinflammatory activity against TPA-induced ear edema in mouse assessed per ear; assay type: functional

**Q.** For `C[C@@H]1O[C@@H](O[C@H]2[C@H](OC(=O)[C@]34CCC(C)(C)C[C@H]3C3=CC[C@@H]5[C@@]6(C)C[C@H](O)[C@H](O[C@@H]7O[C@H](C(=O)O)[C@@H](O)[C@H](O)[C@H]7O)[C@@](C)(C(=O)O)[C@@H]6CC[C@@]5(C)[C@]3(C)C[C@H]4O)O[C@@H](C)[C@H](O)[C@H]2O)[C@H](O)[C@H](O)[C@H]1O` [ZANHASAPONIN A], which ID50 is on record?
**A.** 14 µg

**Q.** How did the ID50 turn out when `C[C@@H]1O[C@@H](O[C@H]2[C@H](OC(=O)[C@]34CCC(C)(C)C[C@H]3C3=CC[C@@H]5[C@@]6(C)C[C@H](O)[C@H](O[C@@H]7O[C@H](C(=O)O)[C@@H](O)[C@H](O)[C@H]7O)[C@@](C)(C(=O)O)[C@@H]6CC[C@@]5(C)[C@]3(C)C[C@H]4O)O[C@@H](C)[C@H](O)[C@H]2O)[C@H](O[C@@H]2OC[C@@H](O)[C@H](O)[C@H]2O)[C@H](O)[C@H]1O` [ZANHASAPONIN B] was run?
**A.** 20 µg

**Q.** How did the ID50 turn out when `C[C@@H]1O[C@@H](O[C@H]2[C@H](OC(=O)[C@]34CCC(C)(C)C[C@H]3C3=CC[C@@H]5[C@@]6(C)C[C@H](O)[C@H](O[C@@H]7O[C@H](C(=O)O)[C@@H](O)[C@H](O)[C@H]7O)[C@@](C)(C(=O)O)[C@@H]6CC[C@@]5(C)[C@]3(C)C[C@H]4O)O[C@@H](C)[C@H](O)[C@H]2O)[C@H](O[C@@H]2OC[C@@H](O)[C@H](O[C@@H]3OC[C@@H](O)[C@H](O)[C@H]3O)[C@H]2O)[C@H](O)[C@H]1O` [ZANHASAPONIN C] was run?
**A.** 79 µg
